{"source": "patent US20180250351A1", "about": "(priority 2015, published 2018)", "key": {"[1]": {"target": "T1, UDP-glucose dehydrogenase (UDP-GDH) (Homo sapiens, UniProt O60701)", "T1 sequence (O60701 1-494)": "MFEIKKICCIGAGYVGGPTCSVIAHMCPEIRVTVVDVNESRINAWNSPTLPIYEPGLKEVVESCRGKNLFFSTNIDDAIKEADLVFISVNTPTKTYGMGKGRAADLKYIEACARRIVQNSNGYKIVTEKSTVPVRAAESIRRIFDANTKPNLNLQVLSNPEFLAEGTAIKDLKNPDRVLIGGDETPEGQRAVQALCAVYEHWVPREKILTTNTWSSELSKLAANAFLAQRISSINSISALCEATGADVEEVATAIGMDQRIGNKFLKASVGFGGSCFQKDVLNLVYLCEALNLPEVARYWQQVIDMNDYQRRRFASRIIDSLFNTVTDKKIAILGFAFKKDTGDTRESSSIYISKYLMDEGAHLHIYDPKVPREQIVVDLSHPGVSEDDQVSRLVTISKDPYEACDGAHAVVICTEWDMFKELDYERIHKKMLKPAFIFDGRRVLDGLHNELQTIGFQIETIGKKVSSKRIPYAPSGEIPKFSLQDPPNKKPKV", "assay": "Spectrophotometric test of inhibition of UDP-glucose dehydrogenase", "assay_type": "biochemical", "conditions": "for type of inhibition of UDP-GDH: in relation to enzyme/substrate and cofactor NAD+; for IC50: 37° C., 340 nm", "description": "The UDP-GDH enzyme catalyses the oxidation of the UDP-glucose using the NAD+ as the oxidant agent, according to the following formula: […]\nUDP-glucose+2NAD++H2O→UDP-glucuronic acid+2NADH+2H+\nFor the spectrophotometric evaluation of the enzymatic activity the following reactive mix has been used:\nThe test has been done at 37° C. and monitored at 340 nm for 20 minutes.\nThe algae has thus been suspended in different concentrations (10-50-100 mg/ml) in distilled water on the one hand and in 100% ethanol on the other; then homogenized and afterwards centrifuged at 5000 rpm for 10 minutes. We have then checked through spectrophotometry the presence in the two extracts of the relevant components, verifying the presence of phycocyanins at 620 nm for the water extract and of carotenoids at 400 nm and chlorophyll at 664 nm for the ethanol extract."}, "[2]": {"conditions": "curcumin dose 100 mg/kg (NPs) or 250 mg/kg (others); cited from earlier work"}, "[3]": {"conditions": "human, in vivo"}, "[4]": {"conditions": "humans; absolute terms, curcumin alone at the non detectable level; cited from earlier work"}, "[5]": {"conditions": "animals; cited from earlier work"}}, "note": "Read-outs that look alike come from different tables or passages of the source."}
{"compound": "phycocyanin", "values": [{"measurement": "type of inhibition of UDP-GDH", "setting": "[1]", "result": "mixed type"}, {"measurement": "IC50", "setting": "[1]; purified molecule", "result": 2.4, "unit": "µM"}]}
{"compound": "phycocyanobilin", "values": [{"measurement": "type of inhibition of UDP-GDH", "setting": "[1]", "result": "directly competitive"}, {"measurement": "IC50", "setting": "[1]; purified pigment", "result": 0.0027, "unit": "µM"}]}
{"compound": "COc1cc(/C=C/C(=O)CC(=O)/C=C/c2ccc(O)c(OC)c2)ccc1O", "note": "[curcumin alone, curcumin]", "values": [{"measurement": "AUC", "setting": "[2]", "result": 312, "unit": "ng·h/mL"}, {"measurement": "Cmax", "setting": "[2]", "result": 90.3, "unit": "ng/mL"}, {"measurement": "time of absorption peak after ingestion", "setting": "[3]", "result": "approximately 15 min"}, {"measurement": "time of peak after ingestion", "setting": "[3]", "result": "approximately 1 hour"}]}
{"compound": "O=C(/C=C/C=C/c1ccc2c(c1)OCO2)N1CCCCC1", "note": "[Piperine, piperine]", "values": [{"measurement": "plasma concentration increase of curcumin", "setting": "[4]", "result": 2000, "unit": "%"}, {"measurement": "plasma concentration increase of curcumin", "setting": "[5]", "result": 154, "unit": "%"}]}
